Experiments:
alkaline phosphatase = assay: Conversion of mutual prodrugs after exposure to alkaline phosphatase (ALP experiment); conditions: for course in the reaction solution (with enzyme): alkaline phosphatase ~600 ng/μl, pH 7.4, 37° C., LCMS; for Prodrug 17 Concentration: mutual prodrug 17 + alkaline phosphatase; for Prodrug 16 Concentration: mutual prodrug 16 + alkaline phosphatase;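 for all read-outs here: mutual prodrug and its released products quantified by LCMS over time in buffer with alkaline phosphatase, compared against enzyme-free control buffer, incubations running 25–50 hours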
Description: Reaction and control solutions were prepared by adding a 500 μL aliquot of a ˜200 ng/μl solution in 1:1 acetonitrile/water of and the compound 16 (or alternatively 17) to 500 μl of a pH 7.4 buffer solution, containing 5 mM tris(hydroxymethyl)aminomethane, 1 mM ZnCl2, 1 mM MgCl2. For the reaction solutions, the buffer also contained approximately 600 ng/μl of alkaline phosphatase (Sigma-Aldrich) whereas the control buffer solutions contained no enzyme. The reaction and control solutions were incubated at 37° C. for 25 to 50 hours. The solutions were analyzed periodically for the respective mutual prodrug and reaction products by LCMS.
The concentration of the alkaline phosphatase in the reaction buffer was ˜600 ng/μL (the enzyme activity of the solution was not determined).
The concentration of the alkaline phosphatase in the buffer added to the stock solution was ˜600 ng/μl (the enzyme activity of the solution was not determined).

[1] = test system: splenic lymphocytes isolated from C57BL/6 mice and CBA mice; assay: Immunosuppression ([3H]TMD incorporation in mouse splenic lymphocytes); type: cell-based; conditions: Mus musculus, Splenic lymphocyte; read-out: Immunosuppresion IC50
TNF-α = TNF-α secretion (h) (PBMC); type: cell-based, human; conditions: Homo sapiens, 24 h, read-out: TNF-α secretion IC50
cytokine release = assay: Panel of standard cell-based in vitro assays evaluating cytokine release inhibition; conditions: prodrugs compared to the steroid drugs (Examples 27 and 62, respectively)
Description: The selected compounds of the invention were tested in a panel of standard, cell-based in vitro assays evaluating the cytokine release inhibition and thus the anti-inflammatory activity of a test article. Several potent steroid analogs were identified, namely compounds described in Examples 23, 27, 43, 59 and 62. […] Therefore by masking the pharmacological properties of a respective steroid the mutual prodrug mitigates the oropharyngeal side effects and confines the antiinflammatory activity of a steroid to the endobronchial space, where the lung enzymes (specifically alkaline phosphatase) release the pharmacologically active steroid (see Examples 141-143).

[2] = Control solution without enzyme (pH 7.4 buffer, 37° C.); type: physicochemical; conditions: 25 to 50 hours, LCMS

## C[C@]12C=CC(=O)C=C1CCC1C3C[C@H]4OC(c5ccc[n+](Cc6ccc(C(O)CNCCCCCCOCCCCc7ccccc7)cc6OP(=O)(O)O)c5)O[C@@]4(C(=O)CO)[C@@]3(C)C[C@H](O)[C@@]12F (stereo partly drawn) [Example 133]
Alkaline phosphatase
  course in the reaction solution (with enzyme): disappearance of the mutual prodrug
Alkaline phosphatase; 0.00 Hours @ 37° C.
  Prodrug 17 Concentration: 214.4 nmol/mL
Alkaline phosphatase; 0.53 Hours @ 37° C.
  Prodrug 17 Concentration: 112.6 nmol/mL
Alkaline phosphatase; 1.05 Hours @ 37° C.
  Prodrug 17 Concentration: 44.9 nmol/mL
Alkaline phosphatase; 2.10 Hours @ 37° C.
  Prodrug 17 Concentration: 9.8 nmol/mL
Alkaline phosphatase; 3.16 Hours @ 37° C.
  Prodrug 17 Concentration: 4.2 nmol/mL
Alkaline phosphatase; 4.21 Hours @ 37° C.
  Prodrug 17 Concentration: 3.7 nmol/mL
Alkaline phosphatase; 10.52 Hours @ 37° C.
  Prodrug 17 Concentration: 0.0 nmol/mL
Alkaline phosphatase; 19.99 Hours @ 37° C.
  Prodrug 17 Concentration: 0.0 nmol/mL
Alkaline phosphatase; 29.46 Hours @ 37° C.
  Prodrug 17 Concentration: 0.0 nmol/mL
Alkaline phosphatase; 39.99 Hours @ 37° C.
  Prodrug 17 Concentration: 0.0 nmol/mL
Alkaline phosphatase; 49.46 Hours @ 37° C.
  Prodrug 17 Concentration: 0.0 nmol/mL
[1]
  IC50: 180 nM
TNF-α
  IC50: > 1000 nM
Cytokine release
  anti-inflammatory activity (cytokine release inhibition), assessment in words: less active or inactive
[2]
  compounds detected in the control solution (without enzyme): Only the mutual prodrug 17 was detected

## C[C@]12C=CC(=O)C=C1CC[C@H]1[C@@H]3C[C@H]4O[C@@H](C5CCCCC5)O[C@@]4(C(=O)CN4CC[N+](C)(Cc5ccc(C(O)CNCCCCCCOCCCCc6ccccc6)cc5OP(=O)(O)O)CC4)[C@@]3(C)C[C@H](O)[C@@]12F (stereo partly drawn) [Example 107, Salmeterol-phosphate-16,17-[(Cyclohexylmethylene)bis(oxy)]-9-fluoro-11-hydroxy-21-(4-methylpiperazinium)-pregna-1,4-diene-3,20-dione[11β,16α(R)]]
Alkaline phosphatase
  course in the reaction solution (with enzyme): disappearance of the mutual prodrug 16
Alkaline phosphatase; 0.00 Hours @ 37° C.
  Prodrug 16 Concentration: 91.0 nmol/mL
Alkaline phosphatase; 0.59 Hours @ 37° C.
  Prodrug 16 Concentration: 87.7 nmol/mL
Alkaline phosphatase; 1.19 Hours @ 37° C.
  Prodrug 16 Concentration: 78.6 nmol/mL
Alkaline phosphatase; 2.96 Hours @ 37° C.
  Prodrug 16 Concentration: 67.8 nmol/mL
Alkaline phosphatase; 3.56 Hours @ 37° C.
  Prodrug 16 Concentration: 62.3 nmol/mL
Alkaline phosphatase; 4.15 Hours @ 37° C.
  Prodrug 16 Concentration: 61.6 nmol/mL
Alkaline phosphatase; 10.67 Hours @ 37° C.
  Prodrug 16 Concentration: 43.1 nmol/mL
Alkaline phosphatase; 15.41 Hours @ 37° C.
  Prodrug 16 Concentration: 36.7 nmol/mL
Alkaline phosphatase; 19.56 Hours @ 37° C.
  Prodrug 16 Concentration: 33.1 nmol/mL
Alkaline phosphatase; 24.30 Hours @ 37° C.
  Prodrug 16 Concentration: 29.3 nmol/mL
Alkaline phosphatase; 30.82 Hours @ 37° C.
  Prodrug 16 Concentration: 24.8 nmol/mL
Alkaline phosphatase; 34.97 Hours @ 37° C.
  Prodrug 16 Concentration: 23.0 nmol/mL
[1]
  IC50: 80 nM
TNF-α
  IC50: 810 nM
Cytokine release
  anti-inflammatory activity (cytokine release inhibition), assessment in words: less active or inactive
[2]
  compounds detected in the control solution (without enzyme): Only the mutual prodrug 16 was detected

Reference: patent US20100209508A1, “Substituted Phenylphosphates as Mutual Prodrugs of Steroids and ß-Agonists for the Treatment of Title Pulmonary Inflammation and Bronchoconstriction” (CORUS PHARMA, INC., priority 2005, published 2010)
